System: NOMO1
Test: cell viability relative to DMSO control; higher = less cytotoxic
Conditions: 48 h
Procedure, shortened: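 Viability values are per-plate percentages of DMSO wells, with background from cell-free wells. Library compounds in DMSO were pin-dosed, in an 11-point threefold series from 47 μM to 0.79 nM, onto NOMO1 or SEM (500 cells/well) or P12-Ichikawa (1000 cells/well) leukemia cells in 1536-well plates (5 μl). Those cells had been adapted for at least four passages in each medium, and CellTiter-Glo One luminescence was read after 48 h at 37°C.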

[1] = HPLM + 10% dialyzed FBS, 0.000781 µM
[2] = HPLM + 10% dialyzed FBS, 0.00234 µM
[3] = HPLM + 10% dialyzed FBS, 0.00702 µM
[4] = HPLM + 10% dialyzed FBS, 0.0211 µM
[5] = HPLM + 10% dialyzed FBS, 0.0632 µM
[6] = HPLM + 10% dialyzed FBS, 0.19 µM
[7] = HPLM + 10% dialyzed FBS, 0.569 µM
[8] = HPLM + 10% dialyzed FBS, 1.71 µM
[9] = HPLM + 10% dialyzed FBS, 5.12 µM
[10] = HPLM + 10% dialyzed FBS, 15.4 µM
[11] = HPLM + 10% dialyzed FBS, 46.1 µM
[12] = RPMI 5 mM glucose + 10% FBS, 0.000781 µM
[13] = RPMI 5 mM glucose + 10% FBS, 0.00234 µM
[14] = RPMI 5 mM glucose + 10% FBS, 0.00702 µM
[15] = RPMI 5 mM glucose + 10% FBS, 0.0211 µM
[16] = RPMI 5 mM glucose + 10% FBS, 0.0632 µM
[17] = RPMI 5 mM glucose + 10% FBS, 0.19 µM
[18] = RPMI 5 mM glucose + 10% FBS, 0.569 µM
[19] = RPMI 5 mM glucose + 10% FBS, 1.71 µM
[20] = RPMI 5 mM glucose + 10% FBS, 5.12 µM
[21] = RPMI 5 mM glucose + 10% FBS, 15.4 µM
[22] = RPMI 5 mM glucose + 10% FBS, 46.1 µM
[23] = RPMI 5 mM glucose + 10% dialyzed FBS, 0.000781 µM
[24] = RPMI 5 mM glucose + 10% dialyzed FBS, 0.00234 µM
[25] = RPMI 5 mM glucose + 10% dialyzed FBS, 0.00702 µM
[26] = RPMI 5 mM glucose + 10% dialyzed FBS, 0.0211 µM
[27] = RPMI 5 mM glucose + 10% dialyzed FBS, 0.0632 µM
[28] = RPMI 5 mM glucose + 10% dialyzed FBS, 0.19 µM
[29] = RPMI 5 mM glucose + 10% dialyzed FBS, 0.569 µM
[30] = RPMI 5 mM glucose + 10% dialyzed FBS, 1.71 µM
[31] = RPMI 5 mM glucose + 10% dialyzed FBS, 5.12 µM
[32] = RPMI 5 mM glucose + 10% dialyzed FBS, 15.4 µM
[33] = RPMI 5 mM glucose + 10% dialyzed FBS, 46.1 µM

Compound	cell viability [1]	cell viability [2]	cell viability [3]	cell viability [4]	cell viability [5]	cell viability [6]	cell viability [7]	cell viability [8]	cell viability [9]	cell viability [10]	cell viability [11]	cell viability [12]	cell viability [13]	cell viability [14]	cell viability [15]	cell viability [16]	cell viability [17]	cell viability [18]	cell viability [19]	cell viability [20]	cell viability [21]	cell viability [22]	cell viability [23]	cell viability [24]	cell viability [25]	cell viability [26]	cell viability [27]	cell viability [28]	cell viability [29]	cell viability [30]	cell viability [31]	cell viability [32]	cell viability [33]
CCOCC(O)COc1ccc(NC(=O)CC[S+](C)C)cc1 (stereo not given)	91.1%	84.9%	106%	98.4%	93.1%	92.4%	110%	107%	97%	107%	98.5%	77.9%	87.1%	86.7%	86.7%	87.3%	82.1%	89.7%	80.8%	91%	94.3%	84.2%	82.1%	81.8%	78.1%	96.5%	90.6%	90.7%	86.3%	84.4%	95.3%	80.1%	85.9%
C[N]1N=CC=C1C/2=C(\C)N(C(=O)C(=C2)/C(=O)NCC3=NC=C(C=C3)[S+](C)([O-])=O)C4=CC=CC(=C4)C(F)(F)F												105%	127%	98.9%	107%	118%	102%	102%	97.5%	100%	96.2%	93.5%	99%	106%	101%	113%	111%	123%	95.7%	79.7%	79.7%	90.1%	103%
Cc1cnc(Nc2ccc(CN3CCOCC3)cc2)nc1Nc1cccc([S+](=O)([O-])NC(C)(C)C)c1	87.4%	98.1%	99.1%	86.6%	81.3%	86.9%	93.7%	75.6%	48.1%	15.5%	10.3%	67.8%	80%	79.7%	71.5%	75.1%	74.2%	78.9%	68%	30.8%	8.44%	7.72%	75.4%	85.6%	89.4%	79.2%	84.4%	80.8%	57.8%	69.8%	38.3%	11.6%	9.38%
CCN(CC)CCCC(C)Nc1nc(C)cc(Nc2ccc3nc(C)cc(N)c3c2)n1 (stereo not given)	79.6%	105%	124%	125%	108%	125%	119%	129%	102%	111%	114%	96.3%	111%	110%	113%	123%	116%	124%	110%	120%	108%	111%	106%	108%	114%	111%	122%	115%	120%	107%	115%	94.6%	103%
CN(C(Cc1ccc(O[S+](=O)([O-])c2cccc3cnccc23)cc1)C(=O)N1CCN(c2ccccc2)CC1)[S+](=O)([O-])c1cccc2cnccc12 (stereo not given)	127%	98.3%	109%	113%	103%	120%	132%	95.2%	105%	77%	48.4%	93.8%	81.5%	95.8%	101%	93.8%	86.3%	95.2%	82.6%	91.4%	82.5%	66.3%	82.5%	97.7%	99.8%	94.5%	89.2%	101%	93.9%	98.4%	93.8%	81.6%	56.1%
CCOC(=O)[C@@H](N)CCC(=O)N[C@@H](CSCc1ccccc1)C(=O)N[C@@H](C(=O)OCC)c1ccccc1																							128%	116%	123%	130%	133%	136%	121%	133%	137%	139%	98.9%
O=C(NCc1ccccc1)c1csc(Nc2ccncn2)n1	86.8%	95.2%	101%	94%	121%	97.3%	97.6%	51.2%	26.7%	4.88%	2.11%	90.8%	82.1%	98.6%	83%	94.8%	98.2%	95.4%	56.6%	33.4%	4.95%	3.15%	92%	95%	93.2%	85.2%	93.7%	77.2%	103%	67.7%	33.9%	4.75%	3.19%
Cc1cnc(Nc2ccc(N3CCN(C)CC3)cc2)nc1Nc1cccc([S+](=O)([O-])NC(C)(C)C)c1	122%	117%	115%	104%	122%	120%	95.7%	80.2%	65.8%	45.5%	5.81%	100%	108%	99.1%	98.6%	101%	102%	102%	87.6%	77.8%	44.6%	15.2%	112%	113%	107%	111%	110%	94.2%	101%	95.8%	74.6%	56.8%	21.5%
COc1ccc2[nH]cc(CCNC(C)=O)c2c1	115%	115%	125%	131%	114%	129%	118%	119%	131%	112%	114%																						
OC[C@H]1OC(OC2=CC3=C(C(=C2)O)C(=O)\C(=C/O3)C4=CC=C(O)C=C4)[C@H](O)[C@@H](O)[C@@H]1O (stereo not given in full)	94%	86.6%	79.6%	92.8%	89.9%	89.2%	72%	61.9%	88.9%	72%	74.2%	78.9%	92.5%	85.9%	77.8%	92%	90.7%	87.9%	84.7%	84.1%	86.3%	72%	88.5%	73.9%	78.6%	78.5%	80.8%	73.4%	80.4%	82.8%	76.7%	77.8%	66.7%
C1CN\2C[C@@H](\N=C2S1)C3=CC=CC=C3	101%	98.4%	103%	96.9%	104%	114%	102%	94.8%	91.3%	97.7%	60.3%	87.9%	88.6%	90.1%	90.2%	104%	88.5%	89.5%	90.8%	95.8%	91%	103%	87.6%	88.8%	85.3%	90.5%	93.3%	88.5%	86.8%	99.9%	84%	93%	91.7%
N#CC[C@H](C1CCCC1)n1cc(-c2ncnc3[nH]ccc23)cn1	117%	106%	103%	91.3%	105%	107%	85.1%	85.8%	61.4%	21.2%	15.7%	94.3%	84.2%	101%	78.9%	82.7%	79.1%	87.1%	78.1%	91.3%	43%	14.8%	97.1%	102%	93.2%	66%	108%	93.8%	88.7%	89.9%	79.9%	61.2%	41.2%
C[C@@H](N)C1CC[C@@H](CC1)C(=O)NC2=CC=NC=C2 (stereo not given in full)	98.8%	114%	117%	126%	123%	136%	128%	132%	119%	113%	100%	114%	97.3%	114%	106%	101%	120%	122%	104%	123%	93.5%	93.1%	113%	105%	110%	91%	105%	116%	115%	113%	113%	94.1%	90%
O=C(NCC1CCOCC1)c1cnc(Nc2ccc(Cl)cc2Cl)nc1C(F)(F)F	101%	121%	121%	114%	126%	117%	122%	114%	131%	141%	127%	96.5%	112%	116%	121%	116%	117%	117%	126%	127%	131%	124%	109%	129%	116%	122%	131%	121%	122%	116%	120%	134%	131%
N#Cc1ccnc(N2C(=O)CC[C@H]2C(=O)N(c2cncc(F)c2)[C@H](C(=O)NC2CC(F)(F)C2)c2ccccc2Cl)c1	90.6%	92.3%	96.6%	114%	101%	115%	67.7%	49%	19.6%	26.2%	30.7%	93.2%	95.6%	116%	95.1%	90.1%	92%	94.6%	79.2%	16.8%	16.5%	14.5%	97.2%	97.1%	96.4%	101%	97.6%	90.7%	94.8%	88.2%	42.2%	32.1%	18.8%

Source: the supplement of paper PMC11451515
